Results as given in patent publication US20220306630A1, “AGONISTS OF ROR GAMMAt” (BRISTOL-MYERS SQUIBB COMPANY, priority 2019, published 2022).

Target: T1, RORgT (Homo sapiens, UniProt P51449)
T1 construct: Gal4 (fusion partner); expressed in transfected cells; host or cells: engineered Jurkat cells (Jurkat pEx/Gal/hRORγ CLBD/HYG pG5luc/blast)
T1 sequence (P51449 267-516): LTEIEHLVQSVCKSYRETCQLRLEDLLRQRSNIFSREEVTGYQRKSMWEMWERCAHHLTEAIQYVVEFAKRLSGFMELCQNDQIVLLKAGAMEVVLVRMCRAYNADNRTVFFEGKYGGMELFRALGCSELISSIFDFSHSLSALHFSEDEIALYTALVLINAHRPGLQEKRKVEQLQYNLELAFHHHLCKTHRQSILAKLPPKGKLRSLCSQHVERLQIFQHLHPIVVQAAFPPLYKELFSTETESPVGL
Test: RORgT Gal4 Luciferase Reporter Gene Assay
Assay type: cell-based
Conditions: engineered Jurkat cells overexpressing RORgT (LBD or full length) with Gal4 Luc reporter; 18 hours at 37° C.; 40 μM to 0.67 nM; read-out: RORg_GAL4 EC50
Method: The compound and the cells were incubated for 18 hours at 37° C. in a cell culture incubator. Cells were then lysed with 15 uL of Steady-Glo Luciferase Assay reagent (Promega EZ550), followed by centrifuging the assay plates at 1500 RPM for 1 minute. Subsequently, the plates were read on the Envision (PerkinElmer). The inhibition of constitutive activity of RORgT achieved by graded concentrations of compound was calculated as a percentage of the luminescence signal window reduction over a control compound.

| Compound | EC50 [nM] |
| --- | --- |
| COc1ncc(Oc2c(Cl)cc(NC(=O)CC3CCN(S(C)(=O)=O)CC3)cc2Cl)cc1C(C)(C)F [Example 28, N-(3,5-dichloro-4-((5-(2-fluoropropan-2-yl)-6-methoxypyridin-3-yl)oxy)phenyl)-2-(1-(methylsulfonyl)piperidin-4-yl)acetamide] | 6.9 |
| CC(C)(F)c1cc(Oc2c(Cl)cc(NC(=O)CC3CCN(S(C)(=O)=O)CC3)cc2Cl)cnc1OC(F)F [Example 29, N-(3,5-dichloro-4-((6-(difluoromethoxy)-5-(2-fluoropropan-2-yl)pyridin-3-yl)oxy)phenyl)-2-(1-(methylsulfonyl)piperidin-4-yl)acetamide] | 5.8 |
| COc1ncc(Oc2c(Cl)ccc(C(=O)N3CCC4(CC3)CN(S(C)(=O)=O)C4)c2Cl)cc1C(C)(C)F [Example 30, (2,4-dichloro-3-((5-(2-fluoropropan-2-yl)-6-methoxypyridin-3-yl)oxy)phenyl)(2-(methylsulfonyl)-2,7-diazaspiro[3.5]nonan-7-yl)methanone] | 216 |
| COc1ccc(Oc2c(Cl)cc(NC(=O)Cc3cccnc3)cc2Cl)cc1C1CC1 [Example 37, N-(3,5-dichloro-4-(3-cyclopropyl-4-methoxyphenoxy)phenyl)-2-(pyridin-3-yl)acetamide] | 1120 |
| COc1ccc(Oc2c(F)cc(NC(=O)Cc3cccnc3)cc2F)cc1C1CC1 [Example 39, N-(4-(3-cyclopropyl-4-methoxyphenoxy)-3,5-difluorophenyl)-2-(pyridin-3-yl)acetamide] | 3130 |
| COc1ccc(Oc2c(F)cc(NC(=O)Cc3cccnc3)cc2F)cc1C(C)C [Example 40, N-(3,5-difluoro-4-(3-isopropyl-4-methoxyphenoxy)phenyl)-2-(pyridin-3-yl)acetamide] | 2450 |
| COc1ccc(Oc2c(Cl)cc(NC(=O)C[C@H]3CCCN(S(C)(=O)=O)C3)cc2Cl)cc1C(C)C [Example 44, (R)—N-(3,5-dichloro-4-(3-isopropyl-4-methoxyphenoxy)phenyl)-2-(1-(methylsulfonyl)piperidin-3-yl)acetamide] | 120 |
| COc1ccc(Oc2c(Cl)cc(NC(=O)CC3CCN(S(C)(=O)=O)CC3)cc2Cl)cc1C(C)C [Example 45, N-(3,5-dichloro-4-(3-isopropyl-4-methoxyphenoxy)phenyl)-2-(1-(methylsulfonyl)piperidin-4-yl)acetamide] | 18 |
| COc1ccc(Oc2c(Cl)cc(NC(=O)CC3CCN(S(N)(=O)=O)CC3)cc2Cl)cc1C(C)C [Example 46, N-(3,5-dichloro-4-(3-isopropyl-4-methoxyphenoxy)phenyl)-2-(1-sulfamoylpiperidin-4-yl)acetamide] | 438 |
| COc1ccc(Oc2c(Cl)cc(NC(=O)CN3CCN(S(N)(=O)=O)CC3)cc2Cl)cc1C(C)C [Example 48, N-(3,5-dichloro-4-(3-isopropyl-4-methoxyphenoxy)phenyl)-2-(4-sulfamoylpiperazin-1-yl)acetamide] | 105 |
| Cc1ccc(Oc2c(Cl)cc(NC(=O)Cc3cccnc3)cc2Cl)cc1C(C)C [Example 49, N-(3,5-dichloro-4-(3-isopropyl-4-methylphenoxy)phenyl)-2-(pyridin-3-yl)acetamide] | 344 |
| CC1(c2cc(F)cc(Oc3c(Cl)cc(NC(=O)CC4CCN(S(C)(=O)=O)CC4)cc3Cl)c2)CC1 [Example 51, N-(3,5-dichloro-4-(3-fluoro-5-(1-methylcyclopropyl)phenoxy)phenyl)-2-(1-(methylsulfonyl)piperidin-4-yl)acetamide] | 1.7 |
| CC1(c2cc(F)cc(Oc3c(Cl)ccc(C(=O)NCC4CCN(S(C)(=O)=O)CC4)c3Cl)c2)CC1 [Example 52, 2,4-dichloro-3-(3-fluoro-5-(1-methylcyclopropyl)phenoxy)-N-((1-(methylsulfonyl)piperidin-4-yl)methyl)benzamide] | 28 |
| CC(C)(F)c1cc(F)cc(Oc2c(Cl)cc(NC(=O)Cc3cccc(S(C)(=O)=O)c3)cc2Cl)c1 [Example 53, N-(3,5-dichloro-4-(3-fluoro-5-(2-fluoropropan-2-yl)phenoxy)phenyl)-2-(3-(methylsulfonyl)phenyl)acetamide] | 40 |
| COc1ccc(Oc2c(Cl)ccc(CNS(=O)(=O)C3CCN(S(C)(=O)=O)CC3)c2Cl)cc1C(C)C [Example 57] | 16 |
| COc1ccc(Oc2c(Cl)ccc(CNC(=O)C3CCN(S(N)(=O)=O)CC3)c2Cl)cc1C(C)C [Example 63] | 31 |
| COc1ccc(Oc2c(Cl)ccc(C(=O)N(C)CC3(O)CCN(S(C)(=O)=O)CC3)c2Cl)cc1C(C)C [Example 64] | 23 |
| COc1ccc(Oc2c(Cl)ccc(C(=O)N3CC4(CCN(S(C)(=O)=O)CC4)C3)c2Cl)cc1C(C)C [Example 68] | 15 |
| COc1ccc(Oc2c(Cl)ccc(C(=O)NC[C@H]3CC[C@H](C(=O)OC)CC3)c2Cl)cc1C(C)C [Example 69] | 481 |

The next lines start with the values.

| EC50 [nM] | Compound |
| --- | --- |
| 4280 | CCS(=O)(=O)Nc1cc(Cl)c(Oc2ccc(OC)c(C(C)C)c2)c(Cl)c1 [Example 33, N-(3,5-dichloro-4-(3-isopropyl-4-methoxyphenoxy)phenyl)ethanesulfonamide] |
| 1060 | COc1ccc(Oc2c(Cl)cc(NC(=O)NC(C)C)cc2Cl)cc1C(C)C [Example 34, 1-(3,5-dichloro-4-(3-isopropyl-4-methoxyphenoxy)phenyl)-3-isopropylurea] |
| 2050 | COc1ccc(Oc2c(Cl)cc3[nH]c(-c4ccccc4)nc3c2Cl)cc1C(C)C [Example 35, 4,6-dichloro-5-(3-isopropyl-4-methoxyphenoxy)-2-phenyl-1H-benzo[d]imidazole] |
| 455 | COc1ccc(Oc2c(Cl)cc(NC(=N)Cc3cccnc3)cc2Cl)cc1C(C)C [Example 36, N-(3,5-dichloro-4-(3-isopropyl-4-methoxyphenoxy)phenyl)-2-(pyridin-3-yl)acetimidamide] |
| 30 | COc1ccc(Oc2c(Cl)cc(NC(=O)Cc3ccc(S(C)(=O)=O)cc3)cc2Cl)cc1C(C)C [Example 38, N-(3,5-dichloro-4-(3-isopropyl-4-methoxyphenoxy)phenyl)-2-(4-(methylsulfonyl)phenyl)acetamide] |
| 75 | CCOc1ccc(Oc2c(Cl)cc(NC(=O)Cc3cccnc3)cc2Cl)cc1C(C)C [Example 50, N-(3,5-dichloro-4-(4-ethoxy-3-isopropylphenoxy)phenyl)-2-(pyridin-3-yl)acetamide] |
| 34 | COc1ccc(Oc2c(Cl)ccc(CNC(=O)Cc3ccc(S(C)(=O)=O)cc3)c2Cl)cc1C(C)C [Example 54] |
| 383 | COc1ccc(Oc2c(Cl)ccc(NC(=O)CC3CN(S(C)(=O)=O)C3)c2Cl)cc1C(C)C [Example 58] |
| 139 | COc1ccc(Oc2c(Cl)ccc(CNC(=O)c3ccc(S(N)(=O)=O)cc3)c2Cl)cc1C(C)C [Example 60] |
| 46 | COc1ccc(Oc2c(Cl)ccc(NC(=O)Cc3ccc(S(N)(=O)=O)cc3)c2Cl)cc1C(C)C [Example 61] |
| 96 | COc1ccc(Oc2c(Cl)ccc(CNC(=O)c3ccc(S(C)(=O)=O)cc3Cl)c2Cl)cc1C(C)C [Example 62] |
| 69 | COc1ccc(Oc2c(Cl)ccc(C(=O)N3CCN(S(C)(=O)=O)CC3)c2Cl)cc1C(C)C [Example 65] |
| 268 | COc1ccc(Oc2c(Cl)ccc(N(C)C(=O)C(C)c3ccc(S(C)(=O)=O)cc3)c2Cl)cc1C(C)C (stereo not drawn) [Example 66] |
| 116 | COc1ccc(Oc2c(Cl)ccc(C(=O)N(C)Cc3ccc(S(C)(=O)=O)cc3)c2Cl)cc1C(C)C [Example 67] |
